A value given as a limit tells only on which side of the number the result lay.

Sequence of recombinant HCV NS5B (P26663 2420-3010 limits assumed): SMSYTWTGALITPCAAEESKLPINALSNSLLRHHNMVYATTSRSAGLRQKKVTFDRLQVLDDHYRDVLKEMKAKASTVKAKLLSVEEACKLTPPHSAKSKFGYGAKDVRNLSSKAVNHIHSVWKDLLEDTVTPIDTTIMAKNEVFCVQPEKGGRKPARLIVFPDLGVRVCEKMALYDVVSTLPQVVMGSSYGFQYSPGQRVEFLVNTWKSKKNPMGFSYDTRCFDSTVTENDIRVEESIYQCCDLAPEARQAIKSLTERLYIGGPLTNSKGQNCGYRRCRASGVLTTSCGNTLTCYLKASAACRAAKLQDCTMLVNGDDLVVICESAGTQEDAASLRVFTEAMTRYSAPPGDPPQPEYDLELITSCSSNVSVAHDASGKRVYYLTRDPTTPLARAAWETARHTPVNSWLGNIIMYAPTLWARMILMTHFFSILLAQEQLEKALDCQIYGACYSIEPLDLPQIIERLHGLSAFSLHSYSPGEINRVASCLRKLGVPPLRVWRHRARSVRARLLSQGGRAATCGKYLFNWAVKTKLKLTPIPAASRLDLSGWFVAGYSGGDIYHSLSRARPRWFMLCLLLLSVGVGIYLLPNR

The target of this experiment is recombinant HCV NS5B (Hepatitis C virus genotype 1b, UniProt P26663). Put plainly: biochemical. As to conditions: flashplate, polyrA/biotinylated-oligo dT, 100 nM NS5B, 2 hrs at room temperature; read-out: RNA pol Assay 2 IC50 (μm). On the procedure:
In vitro HCV RdRp Flashplate Scintillation Proximity Assay (Strep-Flash Assay) Used to Evaluate Analogues:
In brief, a 400 ng/μl polyrA solution (Amersham Pharmacia Biotech) was mixed volume-to-volume with 5′ biotin-oligo dT12 at 20 pmol/μl. The template and primers were denatured at 95 C for 5 minutes then incubated at 37 C for 10 minutes. Annealed template-primers were subsequently diluted in a Tris-HCl containing buffer and allowed to bind to streptavidin-coated flashplates overnight.
What is called IC50 is the midpoint of a concentration-inhibition curve. For the compound `O=C(O)[C@H](Cc1ccccc1)N(Cc1sccc1-c1ccc(Cl)cc1Cl)C(=O)c1ccc(Cl)cc1Cl` [compound #157, (2s)-2-{(2,4-Dichloro-benzoyl)-[3-(2,4-dichloro-phenyl)-thiophen-2-ylmethyl]-amino}-3-phenyl-propionic acid], the 50% inhibitory concentration (IC50) was 5 to 20 µM.
Take `Cc1cccc(-c2ccsc2CN(C(=O)c2ccc(Cl)cc2Cl)[C@@H](Cc2ccccc2)C(=O)O)c1` [compound #158, (2s)-2-[(2,4-Dichloro-benzoyl)-(3-m-tolyl-thiophen-2-ylmethyl)-amino]-3-phenyl-propionic acid]: the IC50 was less than 5 µM.
As for `CCOC(=O)c1ccccc1-c1ccsc1CN(C(=O)c1ccc(Cl)cc1Cl)[C@@H](Cc1ccccc1)C(=O)O` [compound #159, (2s)-2-(2-{[(1s-1-Carboxy-2-phenyl-ethyl)-(2,4-dichloro-benzoyl)-amino]-methyl}-thiophen-3-yl)-benzoic acid ethyl ester], the figure is 5 to 20 µM; as for `CCOC(=O)c1ccc(-c2ccsc2CN(C(=O)c2ccc(Cl)cc2Cl)[C@@H](Cc2ccccc2)C(=O)O)cc1` [compound #160, (2s)-4-(2-{[(1s-1-Carboxy-2-phenyl-ethyl)-(2,4-dichloro-benzoyl)-amino]-methyl}-thiophen-3-yl)-benzoic acid ethyl ester], less than 5 µM.
As for `O=C(O)[C@H](Cc1ccccc1)N(Cc1sccc1-c1cccc(F)c1)C(=O)c1ccc(Cl)cc1Cl` [compound #161, (2s)-2-{(2,4-Dichloro-benzoyl)-[3-(3-fluoro-phenyl)-thiophen-2-ylmethyl]-amino}-3-phenyl-propionic acid], the IC50 is 5 to 20 µM.
In the case of `N#Cc1cccc(-c2ccsc2CN(C(=O)c2ccc(Cl)cc2Cl)[C@@H](Cc2ccccc2)C(=O)O)c1` [compound #162, (2s)-2-[[3-(3-Cyano-phenyl)-thiophen-2-ylmethyl]-(2,4-dichloro-benzoyl)-amino]-3-phenyl-propionic acid] it was less than 5 µM; in that of `O=C(O)C(c1cccs1)N(Cc1ccc(-c2cccc(C(F)(F)F)c2)o1)C(=O)c1ccc(Cl)cc1Cl` (stereo not shown) [compound #163, {(2,4-Dichloro-benzoyl)-[5-(3-trifluoromethyl-phenyl)-furan-2-ylmethyl]-amino}-thiophen-2-yl-acetic acid], 5 to 20 µM.
As for `CC(C)(C)OC(=O)N1CCC[C@H]1CN(C(=O)c1ccc(Cl)cc1Cl)[C@@H](Cc1ccccc1)C(=O)O` [compound #164, L-2-{[(1-Carboxy-2-phenyl-ethyl)-(2,4-dichloro-benzoyl)-amino]-methyl}-pyrrolidine-1-carboxylic acid #tert!-butyl ester], the figure is 5 to 20 µM.
As for `CC(C)(C)OC(=O)N1CCC[C@@H]1CN(C(=O)c1ccc(Cl)cc1Cl)[C@@H](Cc1ccccc1)C(=O)O` [compound #165, d-2-{[(1-carboxy-2-phenyl-ethyl)-(2,4-dichloro-benzoyl)-amino]-methyl}-pyrrolidine-1-carboxylic acid #tert!-butyl ester], the figure is 5 to 20 µM; as for `O=C(O)[C@H](Cc1ccccc1)N(C(=O)c1ccc(Cl)cc1Cl)C1CCN(C(=O)OCc2ccccc2)CC1` [compound #166, 4-[(1-Carboxy-2-phenyl-ethyl)-(2,4-dichloro-benzoyl)-amino]-piperidine-1-carboxylic acid benzyl ester], 5 to 20 µM; as for `O=C(O)[C@H](Cc1ccccc1)N(C[C@@H]1CCCN1)C(=O)c1ccc(Cl)cc1Cl` [compound #167, 1-2-[(2,4-Dichloro-benzoyl)-pyrrolidin-2-ylmethyl-amino]-3-phenyl-propionic acid], 5 to 20 µM.
Consider `O=C(O)[C@H](Cc1ccccc1)N(Cc1cccnc1)C(=O)c1ccc(Cl)cc1Cl` [compound #170, 2-[(2,4-Dichloro-benzoyl)-pyridin-3-ylmethyl-amino]-3-phenyl-propionic acid], for which the IC50 was 5 to 20 µM.
In the case of `O=C(O)C(Cc1ccccc1)N(Cc1ccc(C(F)(F)F)cc1)C(=O)c1ccc(Cl)cc1Cl` (stereo not shown) [compound #171, 2-[(2,4-Dichloro-benzoyl)-(4-trifluoromethyl-benzyl)-amino]-3-phenyl-propionic acid] it was 5 to 20 µM; in that of `O=C(O)C(Cc1ccccc1)N(Cc1ccc(OCc2ccc(F)cc2)cc1)C(=O)c1ccc(Cl)cc1Cl` (stereo not shown) [compound #172, 2-{(2,4-Dichloro-benzoyl)-[4-(4-fluoro-benzyloxy)-benzyl]-amino}-3-phenyl-propionic acid], 5 to 20 µM; in that of `O=C(O)C(Cc1ccccc1)N(Cc1ccc(F)c(C(F)(F)F)c1)C(=O)c1ccc(Cl)cc1Cl` (stereo not shown) [compound #173, 2-[(2,4-Dichloro-benzoyl)-(4-fluoro-3-trifluoromethyl-benzyl)-amino]-3-phenyl-propionic acid], 5 to 20 µM.
As for `O=C(O)C(Cc1ccccc1)N(Cc1cccn1S(=O)(=O)c1ccccc1)C(=O)c1ccc(Cl)cc1Cl` (stereo not shown) [compound #174, 2-[(1-Benzenesulfonyl-1h-pyrrol-2-ylmethyl)-(2,4-dichloro-benzoyl)-amino]-3-phenyl-propionic acid], the figure is 5 to 20 µM.
In the case of `O=C(O)C(Cc1ccccc1)N(Cc1cccc(Oc2ccc(Cl)cc2)c1)C(=O)c1ccc(Cl)cc1Cl` (stereo not shown) [compound #175, 2-[[3-(4-Chloro-phenoxy)-benzyl]-(2,4-dichloro-benzoyl)-amino]-3-phenyl-propionic acid] it was 5 to 20 µM.
Turning to `O=C(O)C(Cc1ccccc1)N(Cc1ccccc1OCc1ccccc1)C(=O)c1ccc(Cl)cc1Cl` (stereo not shown) [compound #177, 2-[(2-Benzyloxy-benzyl)-(2,4-dichloro-benzoyl)-amino]-3-phenyl-propionic acid], the IC50 lay in the range of 5 to 20 µM.
In the case of `COc1ccc(C(C)C)cc1-c1ccsc1CN(C(=O)c1ccc(Cl)cc1Cl)[C@@H](Cc1ccccc1)C(=O)O` [compound #178, 2-{(2,4-Dichloro-benzoyl)-[3-(5-isopropyl-2-methoxy-phenyl)-thiophen-2-ylmethyl]-amino}-3-phenyl-propionic acid], the IC50 was in the range of 5 to 20 µM.
As for `O=C(O)[C@H](Cc1ccccc1)N(Cc1sccc1-c1ccc(OC(F)(F)F)cc1)C(=O)c1ccc(Cl)cc1Cl` [compound #179, 2-{(2,4-Dichloro-benzoyl)-[3-(4-trifluoromethoxy-phenyl)-thiophen-2-ylmethyl]-amino}-3-phenyl-propionic acid], the figure is 5 to 20 µM; as for `O=C(O)[C@H](Cc1ccccc1)N(Cc1sccc1-c1cccc(C(F)(F)F)c1)C(=O)c1ccc(Cl)cc1Cl` [compound #180, 2-{(2,4-Dichloro-benzoyl)-[3-(3-trifluoromethyl-phenyl)-thiophen-2-ylmethyl]-amino}-3-phenyl-propionic acid], 5 to 20 µM; as for `O=C(O)[C@H](Cc1ccccc1)N(Cc1sccc1-c1cc(C(F)(F)F)cc(C(F)(F)F)c1)C(=O)c1ccc(Cl)cc1Cl` [compound #181, 2-[[3-(3,5-Bis-trifluoromethyl-phenyl)-thiophen-2-ylmethyl]-(2,4-dichloro-benzoyl)-amino]-3-phenyl-propionic acid], 5 to 20 µM.
With `O=C(O)[C@H](Cc1ccccc1)N(Cc1sccc1-c1ccncc1)C(=O)c1ccc(Cl)cc1Cl` [compound #182, 2-[(2,4-Dichloro-benzoyl)-(3-pyridin-4-yl-thiophen-2-ylmethyl)-amino]-3-phenyl-propionic acid], the IC50 fell in the range of 5 to 20 µM.
In the case of `CSc1ccc(-c2ccsc2CN(C(=O)c2ccc(Cl)cc2Cl)[C@@H](Cc2ccccc2)C(=O)O)cc1` [compound #183, 2-{(2,4-Dichloro-benzoyl)-[3-(4-methylsulfanyl-phenyl)-thiophen-2-ylmethyl]-amino}-3-phenyl-propionic acid] it was 5 to 20 µM; in that of `O=C(O)[C@H](Cc1ccccc1)N(Cc1sccc1-c1ccc(F)cc1)C(=O)c1ccc(Cl)cc1Cl` [compound #184, 2-{(2,4-Dichloro-benzoyl)-[3-(4-fluoro-phenyl)-thiophen-2-ylmethyl]-amino}-3-phenyl-propionic acid], less than 5 µM.
In the case of `O=C(O)[C@H](Cc1ccccc1)N(Cc1sccc1-c1cccnc1)C(=O)c1ccc(Cl)cc1Cl` [compound #185, 2-[(2,4-Dichloro-benzoyl)-(3-pyridin-3-yl-thiophen-2-ylmethyl)-amino]-3-phenyl-propionic acid] it was less than 5 µM.
`O=C(O)[C@H](Cc1ccccc1)N(Cc1ccccc1Br)C(=O)c1ccc(Cl)cc1Cl` [compound #187, 2-[(2-Bromo-benzyl)-(2,4-dichloro-benzoyl)-amino]-3-phenyl-propionic acid]: the IC50 was 5 to 20 µM.
As for `CN(C(=O)c1ccc(Cl)cc1Cl)[C@@H](Cc1ccccc1Br)C(=O)O` [compound #188, 3-(2-Bromo-phenyl)-2-[(2,4-dichloro-benzoyl)-methyl-amino]-propionic acid], the figure is 5 to 20 µM; as for `CN(C(=O)c1ccc(Cl)cc1Cl)[C@H](Cc1ccc(Br)cc1)C(=O)O` [compound #189, 3-(4-Bromo-phenyl)-2-[(2,4-dichloro-benzoyl)-methyl-amino]-propionic acid], less than 5 µM; as for `O=C(O)C(Cc1ccccc1)N(C(=O)c1ccc(Cl)cc1Cl)c1cccc(Br)c1` (stereo not shown) [compound #190, 2-[(3-Bromo-phenyl)-(2,4-dichloro-benzoyl)-amino]-3-phenyl-propionic acid], 5 to 20 µM.
In the case of `O=C(O)[C@H](Cc1ccccc1)N(C(=O)c1ccc(Cl)cc1Cl)c1ccc(Br)cc1` [compound #191, 2-[(4-Bromo-phenyl)-(2,4-dichloro-benzoyl)-amino]-3-phenyl-propionic acid] it was greater than 20 µM.

The values above are taken from patent US20030229053A1, “Compounds and methods for the treatment or prevention of flavivirus infections” (Shire BioChem Inc., priority 2001, published 2003).
